Experimental data reported in patent US5416212A, “Anilide derivatives” (Taisho Pharmaceutical Co., Ltd., priority 1991, dated 1995).
Where a name gives a salt, the structure may show the parent alone.

Biological target: T1, ACAT (Oryctolagus cuniculus, UniProt G1SFD9)
T1 construct: A microsome fraction of a rabbit small intestine prepared in a usual manner; from tissue; host or cells: rabbit small intestine, microsome fraction
T1 sequence (G1SFD9 1-524): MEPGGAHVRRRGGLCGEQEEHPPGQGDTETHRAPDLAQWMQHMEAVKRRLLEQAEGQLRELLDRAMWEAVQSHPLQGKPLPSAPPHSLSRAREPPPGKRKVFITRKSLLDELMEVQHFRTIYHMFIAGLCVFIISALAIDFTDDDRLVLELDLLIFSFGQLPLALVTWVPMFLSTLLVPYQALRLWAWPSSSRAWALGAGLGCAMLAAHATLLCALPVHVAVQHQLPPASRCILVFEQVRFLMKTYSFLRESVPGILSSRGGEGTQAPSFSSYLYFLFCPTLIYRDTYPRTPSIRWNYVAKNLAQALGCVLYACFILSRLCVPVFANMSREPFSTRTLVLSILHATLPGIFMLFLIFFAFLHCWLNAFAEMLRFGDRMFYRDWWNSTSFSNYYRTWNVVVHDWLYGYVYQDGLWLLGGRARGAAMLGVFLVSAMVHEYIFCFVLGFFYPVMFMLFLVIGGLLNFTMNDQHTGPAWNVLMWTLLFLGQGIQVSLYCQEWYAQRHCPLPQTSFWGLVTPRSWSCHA
Assay: Test of ACAT Inhibitory Activity (rabbit small intestinal microsome fraction)
Type: biochemical
Conditions: rabbit small intestinal microsomes, [1-14C]oleyl coenzyme, pH 7.4, 37° C., 6 minutes
Procedure: Test of ACAT Inhibitory Activity
The test was carried out in accordance with the method described in J. Lipid Res., Vol. 22, p.
A microsome fraction of a rabbit small intestine prepared in a usual manner was suspended in a 0.04N potassium phosphate buffer solution (pH 7.4) containing 0.1N sucrose, 0.03N ethylenediaminetetraacetic acid (EDTA), and 0.05N potassium chloride. Each drug to be tested was dissolved in dimethyl sulfoxide.
The rabbit small intestinal microsome fraction suspension prepared above (250 μg as protein) and [1-^14 C]oleyl coenzyme were added to a 0.05N phosphate buffer solution (pH 7.4) containing 1% bovine serum albumin, followed by addition of a drug to be tested in a varied concentration. The total volume of the mixture was adjusted to 500 μl to prepare a sample. For control, a sample was prepared in the same manner, except for adding no test drug. The sample was incubated at 37° C. for 6 minutes, and the reaction was terminated by addition of a mixture of chloroform and methanol (mixing ratio=2:1). After stirring, the chloroform layer was collected and concentrated to dryness. […] A gel portion corresponding to cholesterol oleate was scraped, and its radioactivity was measured with a liquid scintillation counter (LSC-3000, manufactured by Aloka Co., Ltd.). Percent inhibition on ACAT activity was calculated using the following equation to obtain an IC50 value. [formula]

SMILES | IC50 [nM]
CC(C)c1cccc(C(C)C)c1NC(=O)CSCCCCCCN1CCN(c2cccc(Cl)c2)CC1 [Compound 7, N-(2,6-Diisopropylphenyl)-2-{6-[4-(3-chlorophenyl)piperazinyl]hexylthio}acetamide] | 10 to 100
Cc1cccc(N2CCN(CCCCCCSCC(=O)Nc3c(C(C)C)cccc3C(C)C)CC2)c1 [Compound 8, N-(2,6-Diisopropylphenyl)-2-{6-[4-(3-methylphenyl)piperazinyl]hexylthio}acetamide] | 10 to 100
CC(C)c1cccc(C(C)C)c1NC(=O)CSCCCCCCN1CCN(c2ccccc2Cl)CC1 [Compound 4, N-(2,6-Diisopropylphenyl)-2-{6-[4-(2-chlorophenyl)piperazinyl]hexylthio}acetamide] | 10 to 100
CC(C)c1cccc(C(C)C)c1NC(=O)CSCCCCCCN1CCN(c2ccccn2)CC1 [Compound 5, N-(2,6-Diisopropylphenyl)-2-{6-[4-(2pyridyl)piperazinyl]hexylthio}acetamide] | 10 to 100
CC(C)c1cccc(C(C)C)c1NC(=O)CSCCCCCCN1CCN(c2ccccc2)CC1 [Compound 1, N-(2,6-Diisopropylphenyl)-2-[6-(4-phenylpiperazinyl)hexylthio]acetamide] | 10 to 100
Cc1ccccc1N1CCN(CCCCCCSCC(=O)Nc2c(C(C)C)cccc2C(C)C)CC1 [Compound 9, N-(2,6-Diisopropylphenyl)-2-{6-[4-(2-methylphenyl)piperazinyl]hexylthio}acetamide fumarate] | 10 to 100
CC(C)c1cccc(C(C)C)c1NC(=O)CSCCCCCCN1CCN(c2ncccn2)CC1 [Compound 6, N-(2,6-Diisopropylphenyl)-2-{6-[4-(2-pyrimidyl)piperazinyl]hexylthio}acetamide] | 10 to 100
COc1ccccc1N1CCN(CCCCCCSCC(=O)Nc2c(C(C)C)cccc2C(C)C)CC1 [Compound 2, N-(2,6-Diisopropylphenyl)-2-{6-[4-(2-methoxyphenyl)piperazinyl]hexylthio}acetamide dihydrochloride] | 10 to 100
COc1ccc(N2CCN(CCCCCCSCC(=O)Nc3c(C(C)C)cccc3C(C)C)CC2)cc1 [Compound 3, N-(2,6-Diisopropylphenyl)-2-{6-[4-(4methoxyphenyl)piperazinyl]hexylthio}acetamide] | 10 to 100
CC(C)c1cccc(C(C)C)c1NC(=O)CSCCCCCCN1CCN(c2cccc(C(F)(F)F)c2)CC1 [Compound 10, N-(2,6-Diisopropylphenyl)-2-{6-[4-(3-trifluoromethylphenyl)piperazinyl]hexylthio}acetamide] | 10 to 100

Continued, values first:

IC50 [nM] | SMILES
10 to 100 | CC(C)c1cccc(C(C)C)c1NC(=O)CSCCCCCCCN1CCN(c2ccccc2)CC1 [Compound 25, N-(2,6-Diisopropylphenyl)-2-[7-(4-phenylpiperazinyl)heptylthio]acetamide]
10 to 100 | CC(C)c1cccc(C(C)C)c1NC(=O)CSCCCCCCCCCN1CCN(c2ccccc2)CC1 [Compound 22, N-(2,6-Diisopropylphenyl)-2-[9-(4-phenylpiperazinyl)nonylthio]acetamide]
1 to 10 | CC(C)c1cccc(C(C)C)c1NC(=O)CSCCCCCCCCN1CCN(c2ccccc2)CC1 [Compound 21, N-(2,6-Diisopropylphenyl)-2-[8-(4-phenylpiperazinyl)octylthio]acetamide]
10 to 100 | CC(C)c1cccc(C(C)C)c1NC(=O)CSCCN1CCN(c2ccccc2)CC1 [Compound 17, N-(2,6-Diisopropylphenyl)-2-[2-(4-phenylpiperazinyl)ethylthio]acetamide dihydrochloride]
10 to 100 | CC(C)c1cccc(C(C)C)c1NC(=O)CSCCCCCCN1CCN(c2cc(Cl)ccn2)CC1 [Compound 15, N-(2,6-Diisopropylphenyl)-2-{6-[4-(4-chloro-2-pyridyl)piperazinyl]hexylthio}acetamide]
10 to 100 | CC(C)c1cccc(C(C)C)c1NC(=O)CSCCCCCCCCCCN1CCN(c2ccccc2)CC1 [Compound 23, N-(2,6-Diisopropylphenyl)-2-[10-(4-phenylpiperazinyl)decylthio]acetamide]
10 to 100 | CC(C)c1cccc(C(C)C)c1NC(=O)CSCCCCCCN1CCN(c2ccc(F)cc2)CC1 [Compound 11, N-(2,6-Diisopropylphenyl)-2-{6-[4-(4-fluorophenyl)piperazinyl]hexylthio}acetamide]
10 to 100 | CC(C)c1cccc(C(C)C)c1NC(=O)CSCCCCCCN1CCN(c2cccc(C(F)(F)F)n2)CC1 [Compound 14, N-(2,6-Diisopropylphenyl)-2-{6-[4-(6-trifluoromethyl-2-pyridyl)piperazinyl]hexylthio}acetamide]
10 to 100 | CC(C)c1cccc(C(C)C)c1NC(=O)CSCCCCCCN1CCN(c2ccc(Cl)cc2)CC1 [Compound 16, N-(2,6-Diisopropylphenyl)-2-{6-[4-(4-chlorophenyl)piperazinyl]hexylthio}acetamide]
10 to 100 | CC(C)c1cccc(C(C)C)c1NC(=O)CSCCCCCCCCCCCCN1CCN(c2ccccc2)CC1 [Compound 24, N-(2,6-Diisopropylphenyl)-2-[12-(4-phenylpiperazinyl)dodecylthio]acetamide]
10 to 100 | CC(C)c1cccc(C(C)C)c1NC(=O)CSCCCCN1CCN(c2ccccc2)CC1 [Compound 19, N-(2,6-Diisopropylphenyl)-2-[4-(4-phenylpiperazinyl)butylthio]acetamide dihydrochloride]
10 to 100 | CC(C)c1cccc(C(C)C)c1NC(=O)CSCCCN1CCN(c2ccccc2)CC1 [Compound 18, N-(2,6-Diisopropylphenyl)-2-[3-(4-phenylpiperazinyl)propylthio]acetamide dihydrochloride]
10 to 100 | CC(C)c1cccc(C(C)C)c1NC(=O)CSCCCCCCN1CCN(c2ccccc2[N+](=O)[O-])CC1 [Compound 12, N-(2,6-Diisopropylphenyl)-2-{6-[4-(2-nitrophenyl)piperazinyl]hexylthio}acetamide]

System: Normal Rat
Assay: Test of Lipid Reduction in Normal Rat
Type: in vivo, rat (male Wister)
Conditions: compared with the control, oral 100 mg/kg for 3 days
Procedure: Test of Lipid Reduction in Normal Rat
Five 5-week-old male Wister rats per group were used as test animals. Each test drug was orally administered to the rat at a dose of 100 mg/kg for 3 days. A blood sample was taken from the rat having been deprive of food for 18 hours from the final administration, and the serum was separated. A total cholesterol value and a total triglyceride value were measured with an autoanalyzer (Hitachi 7150) in accordance with an enzyme method (Autosera, manufactured by Daiichi Kagaku K.K.). Lipoprotein was separated by a precipitation method (HDL-C.2, manufactured by Daiichi Kagaku K.K.), and the cholesterol in the lipoprotein was determined by an enzyme method. Five ml/kg of each test drug suspended in a 0.2% aqueous solution of sodium carboxymethyl cellulose was administered. For control, the same sodium carboxymethyl cellulose solution containing no test drug was administered.
Note: "Percent change" in Tables 2 and 3 is a rate of change in the respective cholesterol value compared with the control.

SMILES | Cholesterol in High Density Lipoprotein, Percent Change [%] | Cholesterol in Low Density Lipoprotein, Percent Change [%] | Total Cholesterol in Serum, Percent Change [%] | Total Triglyceride in Serum, Percent Change [%]
CCCCCCCCCCC(C)(C)C(=O)Nc1c(OC)cc(OC)cc1OC [Compound B, N-(2,4,6-Trimethoxyphenyl)-2,2-dimethyldodecylamide, reference compound] | 15.5 | 0.0 | 7.1 | 18.8
CC(C)c1cccc(C(C)C)c1NC(=O)CSCCCCCCN1CCN(c2ccccc2)CC1 [Compound 1, N-(2,6-Diisopropylphenyl)-2-[6-(4-phenylpiperazinyl)hexylthio]acetamide] | 3.4 | -50.8 | -12.2 | -41.6

Same assay, conditions: oral 100 mg/kg for 3 days, fasted 18 hours

SMILES | Cholesterol in High Density Lipoprotein, Measured Value [mg/dL] | Cholesterol in Low Density Lipoprotein, Measured Value [mg/dL] | Total Cholesterol in Serum, Measured Value [mg/dL] | Total Triglyceride in Serum, Measured Value [mg/dL]
CCCCCCCCCCC(C)(C)C(=O)Nc1c(OC)cc(OC)cc1OC [Compound B, N-(2,4,6-Trimethoxyphenyl)-2,2-dimethyldodecylamide, reference compound] | 51.4 ± 2.2 | 11.8 ± 5.1 | 63.2 ± 3.1 | 108.0 ± 5.1
CC(C)c1cccc(C(C)C)c1NC(=O)CSCCCCCCN1CCN(c2ccccc2)CC1 [Compound 1, N-(2,6-Diisopropylphenyl)-2-[6-(4-phenylpiperazinyl)hexylthio]acetamide] | 46.0 ± 1.7 | 5.8 ± 2.0 | 51.8 ± 3.2 | 51.6 ± 2.7
